Measured values published in PubChem BioAssay (NCI).
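Method: 48-hour compound exposure of cells in 96-well plates, five concentrations, linear interpolation of endpoints. GI50: concentration for 50% inhibition of growth. TGI: total growth inhibition.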

What was measured:
Test in all cases: inhibition of tumour cell growth, NCI panel, 48 h
[1] = system: ACHN renal
[2] = system: SW-620 colon
[3] = system: SR leukemia
[4] = system: A498 renal
[5] = system: HCC-2998 colon
[6] = system: BT-549 breast
[7] = system: MDA-MB-435
[8] = system: MCF7 breast
[9] = system: SF-268 CNS
[10] = system: K-562 leukemia

Structure (SMILES)	TGI [1] [µM]	TGI [2] [µM]	TGI [3] [µM]	TGI [4] [µM]	TGI [5] [µM]	TGI [6] [µM]	TGI [7] [µM]	TGI [8] [µM]	TGI [9] [µM]	TGI [10] [µM]	GI50 [5] [µM]
O=C1/C(=C/c2ccncc2)C(n2cccc2)c2c(Br)sc(Br)c21 (stereo unspecified)	17.1	3.55	9.51	39	3.45	16.8	4.66	12.7	11	6.91	–
COc1ccc2c(c1)-c1c(c3cc(OC)ccc3n1CCN(C)C)CC2	28.4	31.1	25.1	24.1	20.2	26.9	26.4	28.9	37.3	26.5	–
C=C1CC(COc2ccc3c(C)c(C)c(=O)oc3c2C)(c2ccccc2)OC1=O (stereo unspecified)	7.51	3.5	> 100	12.5	7.12	3.17	7.96	3.56	7.96	3.88	–
Clc1ccc(OCc2nnc(COc3ccc(OCc4nnc(COc5ccc(Cl)cc5Cl)o4)c(Cl)c3)o2)c(Cl)c1	> 100	> 100	36.6	> 100	97.3	> 100	> 100	> 100	64.3	53.3	–
NC(Cc1[nH]nc2ccccc12)C(=O)O (stereo unspecified)	> 100	> 100	> 100	> 100	> 100	> 100	> 100	> 100	> 100	> 100	–
COC(=O)C1=C(C)NC(C)=C(C(=O)OC)C1c1cccc(N=O)c1	27.6	17.7	> 100	98.2	45.9	31	29.7	40.1	30.8	> 100	–
COc1cc2[nH]c(=O)c3cc(-c4ccccc4)cc4c(Cl)nc(c1OC)c2c43	77.6	> 66.1	> 100	> 100	> 86.4	> 67	8.84	7.71	> 55.9	> 100	–
CC1(C)OC[C@@H](C[C@H](O)COCc2ccccc2)O1	> 100	> 100	> 100	> 100	> 100	> 100	> 100	> 100	> 100	> 100	–
CC(=O)C1(O)CCC2(O)C3(O)CC=C4CC(O)CCC4(C)C3CC(OC(=O)c3ccc(O)cc3)C12C (stereo unspecified)	> 100	> 100	> 100	> 100	> 100	> 100	> 100	> 100	> 100	> 100	–
CC(=O)OCC(=O)O[C@@H]1[C@H]2[C@@H](OC(=O)c3ccccc3)[C@@H](C)C[C@]2(O)[C@H](OC(C)=O)[C@@]2(C)C[C@]1(OC(C)=O)C[C@H]1C(=O)C(C)(C)[C@@H](OC(C)=O)[C@@H]12	> 25	> 25	> 25	> 23.8	> 25	> 25	> 25	> 25	> 25	> 25	–
Cc1cn(CCCCCOC(=O)NC(CCCNC(N)=O)C(=O)O)c(=O)[nH]c1=O (stereo unspecified)	> 100	> 100	> 100	> 100	> 100	> 100	> 100	> 100	> 100	> 100	–
CCC(=O)Nc1ccc(NS(=O)(=O)c2ccc(Cl)cc2)cc1	> 100	> 100	> 100	> 100	> 100	> 100	> 100	> 100	> 100	> 100	–
CCOc1snc(C(Cl)(Cl)Cl)c1Cl	> 100	> 100	35.6	62.8	63.3	70.6	> 100	78.9	46.1	> 100	–
O=C(O)C1=NN(c2ccc(S(=O)(=O)O)cc2)C2(C1)C(Cl)C(=O)N2c1nc2ccccc2s1 (stereo unspecified)	30.7	19.8	24.5	36.7	33.4	33	32.6	29.9	39.8	58.5	–
Cc1cc(S(=O)(=O)Nc2n[nH]c(Nc3ccccc3)n2)c(SCC(=O)O)cc1Cl	> 100	> 100	> 100	> 100	> 100	> 100	> 100	> 100	> 100	> 100	–
Cn1nc2c(c1N)Cc1c(nn(C)c1N)-c1ccccc1-2	> 100	> 100	> 100	> 100	> 100	> 100	> 100	> 100	> 100	> 100	–
CN(C)CCNc1c([N+](=O)[O-])sc2ccc(Cl)cc12	> 100	> 100	> 100	> 100	> 100	> 100	> 100	> 100	> 100	> 100	–
O=CN1CCN(C(=O)c2ccco2)C1=S	24	> 46.5	9.25	39.7	27.2	16.8	19.7	10.6	28.8	29.5	13.4
O=C(OC12CC3CC(CC(C3)C1)C2)c1ccc(NCc2cc(O)ccc2O)cc1	2.35	4.92	0.907	4.98	3.75	1.71	4.45	8.54	5.69	2.38	–
C[n+]1c(-c2ccc(NC(=O)c3ccc(C(=O)Nc4ccc(-c5cn6ccccc6[n+]5C)cc4)cc3)cc2)cn2ccccc21	> 100	> 100	> 100	> 94.9	> 100	> 100	> 100	> 100	> 100	> 100	–
